{"source": "patent US9034876B2", "about": "“Treatment of chronic inflammation with a 1,2,4-triazolo [1,5a] pyridine derivative” (Cephalon, Inc., priority 2010, dated 2015)", "key": {"[1]": {"target": "human TYK2 (Homo sapiens, UniProt P29597)", "sequence (P29597 whole entry)": "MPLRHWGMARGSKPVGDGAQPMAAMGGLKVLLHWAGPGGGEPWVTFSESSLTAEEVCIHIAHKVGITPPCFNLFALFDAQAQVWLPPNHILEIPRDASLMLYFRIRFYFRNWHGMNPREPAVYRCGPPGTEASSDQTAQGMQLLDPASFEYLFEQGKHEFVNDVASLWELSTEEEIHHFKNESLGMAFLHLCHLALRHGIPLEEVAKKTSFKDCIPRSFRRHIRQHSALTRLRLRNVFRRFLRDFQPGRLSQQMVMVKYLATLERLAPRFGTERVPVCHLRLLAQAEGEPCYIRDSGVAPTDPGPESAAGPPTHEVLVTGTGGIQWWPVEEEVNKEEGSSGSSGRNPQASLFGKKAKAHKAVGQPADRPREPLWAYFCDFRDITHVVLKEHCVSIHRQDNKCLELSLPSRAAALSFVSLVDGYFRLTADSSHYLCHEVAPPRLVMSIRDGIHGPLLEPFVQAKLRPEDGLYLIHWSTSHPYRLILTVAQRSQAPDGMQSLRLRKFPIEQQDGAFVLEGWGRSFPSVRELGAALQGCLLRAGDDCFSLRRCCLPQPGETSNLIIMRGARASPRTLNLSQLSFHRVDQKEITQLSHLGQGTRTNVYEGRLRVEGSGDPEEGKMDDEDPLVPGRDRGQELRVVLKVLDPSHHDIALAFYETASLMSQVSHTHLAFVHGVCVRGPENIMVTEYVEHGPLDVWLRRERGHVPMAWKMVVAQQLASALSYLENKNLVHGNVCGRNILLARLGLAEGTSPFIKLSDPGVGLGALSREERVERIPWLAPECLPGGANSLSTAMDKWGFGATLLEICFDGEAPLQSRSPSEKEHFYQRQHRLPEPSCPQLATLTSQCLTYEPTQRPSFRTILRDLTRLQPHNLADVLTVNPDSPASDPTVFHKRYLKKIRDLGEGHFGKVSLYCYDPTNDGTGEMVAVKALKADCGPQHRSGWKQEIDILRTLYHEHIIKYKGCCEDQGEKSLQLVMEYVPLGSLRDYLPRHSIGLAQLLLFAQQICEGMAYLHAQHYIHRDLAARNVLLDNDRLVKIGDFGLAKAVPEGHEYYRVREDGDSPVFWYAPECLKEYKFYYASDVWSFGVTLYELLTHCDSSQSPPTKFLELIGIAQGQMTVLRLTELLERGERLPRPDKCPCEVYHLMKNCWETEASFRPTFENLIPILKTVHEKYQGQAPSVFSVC", "assay": "TYK2 kinase enzyme assay, TRF detection", "type": "biochemical", "settings": "relative to JAK2", "experimental": "(§2) The kinase activity of baculovirus-expressed human JAK kinases (JAK1, JAK2, JAK3 or TYK2) was measured using the time-resolved fluorescence (TRF) detection system as described elsewhere [17]. Each 96-well Costar high binding plate (Corning, Corning, N.Y.) was coated with 100 μl/well of 10 μg/ml neutravidin (Pierce Biotechnology, Rockford, Ill.) in TBS at 37° C. for 2 h, followed by 100 μl/well of 1 μg/ml 15-mer peptide substrate (biotinyl-amino-hexanoyl-[sequence]-amide, Infinity Biotech Research and Resource, Aston, Pa.) at 37° C. for 1 h. The kinase assay mixture (total volume=100 μl/well) consisting of 20 mM HEPES (pH 7.2), ATP (Km level for each kinase), 1 mM MnCl2, 0.1% BSA, and test Compound (diluted in DMSO; 2.5% DMSO final in assay) was added to the assay plate. The concentrations of ATP used were as follows: 0.2 μM ATP for JAK1, JAK2 and TYK2; 0.1 μM ATP for JAK3. Enzyme was added and the reaction was allowed to proceed for 20 min at RT. […] Plates were agitated for 10 min and the fluorescence of the resulting solution measured using the PerkinElmer EnVision® 2102 or 2104 multi-label plate reader. IC50 values were determined using the 4-parameter logistic model in XLFit® 4 (IDBS, Ltd., Guildford, UK)."}, "[2]": {"tested_on": "JAK2 in irf-bla TF-1 cells", "assay": "GeneBLAzer reporter assay in irf-bla TF-1 cells", "type": "cell-based", "experimental": "The effect of Compound A in a cellular system was measured using irf-bla TF-1 cells (JAK2) and Ba/F3 (JAK3) cells. These cells were not tested for the presence of JAK1 and TYK2. IC50 values are reported as the average±standard deviation of at least 4 independent determinations."}, "[3]": {"assay": "CAIA model, total body mass", "type": "in vivo, female DBA/1 mice", "settings": "all doses", "description": "FIG. 3E: Depicts the effect of treatment on total body mass in a CAIA model\nAcclimated mice were randomized, pre-bled and measured for baseline inflammation before any studies were initiated. On day 0, DBA/1 female mice were injected i.v. with […] of a saline solution containing 1.5 mg of a 10 mg/ml cocktail of arthritogenic monoclonal antibodies directed against different epitopes of collagen type II (Chondrex, Redmond, Wash.) suspended in saline. On day 3, mice were injected with 100 μl of 50 μg of E. coli 0111:B4 LPS (0.5 mg/ml stock) (Chondrex, Redmond, Wash.) i.p. and provided with gel food during recovery. Two days post-LPS treatment monitoring of arthritic paws began; peak arthritis usually occurred 2-3 days following LPS treatment. […] Arthritis clinical score tables can be found described elsewhere. […] All samples were kept at −80° C. until ready to assay. At about 4 weeks, mice were harvested for spleen, serum and arthritic paws for STAT and cytokine quantitation and histological analysis. […]"}, "[4]": {"tested_on": "JAK2 (STAT5/pSTAT5 in HEL92 tumor extracts)", "assay": "In vivo pharmacodynamic assay, HEL92 tumor extracts", "design": "species or system mice", "settings": "55 mg/kg p.o., 2 hours", "text": "Levels of STAT5 and pSTAT5 were quantitated via western blot. Each lane represents an individual sample."}, "[5]": {"tested_on": "phospho-STAT3", "assay": "CIA model, paw phospho-STAT3", "type": "in vivo, female DBA/1 mice", "description": "(§1) Female DBA/1 mice were injected with purified collagen type II in CFA i.d. (intradermal), then boosted with collagen type II in IFA, s.c., (subcutaneous) on day 21 followed by a day 28 LPS injection i.p. to induce arthritis (CIA). Mice that scored a ‘1’ or better for each paw were considered arthritic and entered into the study. Treatments started after 7-10 days of arthritis induction. Compound A was provided orally, b.i.d., for all doses tested; Dex was administered i.p. at 1.5 mg/kg, three times a week; and vehicle (PEG400+1% DMSO) was provided orally, b.i.d.\nFIG. 4B: Depicts Phospho-STAT3 expression in arthritic paws for each treatment group.\nA more detailed description of this method can be found described elsewhere (Lu et al, 2010, submitted for publication). Briefly, the front (including carpus) and back (including tarsus) right paws were collected and frozen in dry-ice cooled isopentane and stored at −80° C. until use. The paws were cut to 2 mm×2 mm segments and kept on dry-ice in round bottom polypropylene tubes. […] Protein concentration was measured using a BCA protein assay (Pierce, Rockford, Ill.) and adjusted to 3 mg/ml. […]"}, "[6]": {"tested_on": "JAK2 in HEL92 cells (phosphorylation of STAT5)", "assay": "Inhibition of STAT5 phosphorylation in HEL92 cells (western blot)", "type": "cell-based", "settings": "1 hour, serum-free media"}, "[7]": {"tested_on": "collagen-antibody-induced arthritis (CAIA)", "assay": "Collagen-antibody-induced arthritis (CAIA) model, paw size and clinical score", "type": "in vivo, female DBA/1 mice", "settings": "55 mg/kg p.o. b.i.d., day 13", "experimental": "Female DBA/1 mice were injected i.v. (intravenous) with purified anti-collagen type II antibodies, then given 25 μg of LPS (lipopolysaccharide), i.p. (intraperitoneal), three days later to induce arthritis by day 5. Mice that met the arthritis criteria score of 1 per paw were entered into the study. Compound A was administered orally, b.i.d. (twice daily), for all doses tested; Dex (Dexamethasone) was administered at 1.5 mg/kg three times a week, i.p.; and vehicle (PEG400+1% DMSO) was administered orally.\nAnti-collagen type II antibody was delivered to mice i.v. and oral administration of Compound A was initiated upon meeting minimum score requirements and entry into dosage groups. Compound A was administered at 10, 30 or 55 mg/kg p.o. twice daily for two weeks total. Vehicle groups were treated with PEG400 in 1% DMSO; dexamethasone (Dex) was used as a glucocorticoid standard of care reference. Dex was given i.p. in saline alone, three times a week (every 48 hours) at 1.5 mg/kg of total body mass.\nAcclimated mice were randomized, pre-bled and measured for baseline inflammation before any studies were initiated. On day 0, DBA/1 female mice were injected i.v. with 100 μl of a saline solution containing 1.5 mg of a 10 mg/ml cocktail of arthritogenic monoclonal antibodies directed against different epitopes of collagen type II (Chondrex, Redmond, Wash.) suspended in saline. […]"}, "[8]": {"tested_on": "collagen-antibody-induced arthritis (CAIA)", "assay": "CAIA model, joint histopathology scores", "type": "in vivo, female DBA/1 mice", "settings": "compared to vehicle controls", "experimental": "Tissues were also stained with Safranin-O to evaluate matrix degeneration. Five representative mice from each group were sent for histological analysis and graded according to a scoring method described herein. The data in the figures represent mean±SEM, all statistics were performed using Prism® software and 2-way ANOVA analysis. H&E and Safranin-O stained paraffin wax embedded carpus and tarsus sections were scored by a board certified, independent pathologist for the criteria described in the materials and methods. Tabulated data represent mean±SD (standard deviation) values for the tarsus only. Statistics were performed using 2-way ANOVA analysis, *p<0.05; **p<0.01; ***p<0.001, N=5 mice per group tested. At the end of each experiment, front and hind paws (including carpus and tarsus) were removed from the body of the animal for histological analysis. Skin from the ends of the digits was removed and the metatarsal region skin perforated using surgical scissors to allow full decalcification. […] After 7-10 days of decalcification, samples were washed for 2 hours in distilled water and stored in 70% ethanol at 4° C. until ready to be processed. […] A total of five mice from each group were analyzed via histopathology, 10× representative images are shown for each group tested."}, "[9]": {"tested_on": "carrageenan-induced inflammation", "assay": "Air pouch mouse model of carrageenan-induced inflammation", "type": "in vivo, Balb/c mice", "settings": "10, 30 and 55 mg/kg into the pouch, 24 hours, p<0.05 vs vehicle", "experimental": "Balb/c mice were induced for air pouch initiation (see materials and methods) using sterile air. Carrageenan at 1% in saline was injected directly into the pouch followed by treatment with Compound A or dexamethasone (Dex) 1 hour later. One-hundred microliters of air pouch fluid was removed 24 hours post-administration. FIG. 5A: Depicts total cell count using 7-AAD exclusion via flow cytometeric analysis and BD TruCount beads. FIG. 5B: Depicts fluid supernatant IL-6 concentration as determined by Luminex® cytokine analysis. FIG. 5C: Depicts hemoglobin content as assessed by the Drabkin's assay. All data shown in the figures represent mean±SEM, and statistics were performed using 2-way ANOVA analysis, *p<0.05, N=5 mice per group tested. To test the impact of Compound A inhibition of JAK2 at the cellular level, the mouse air pouch model (APM) was utilized. Air-filled subcutaneous pouches were maintained under sterile conditions and injected with 1% carrageenan simultaneously with Compound A at 10, 30 and 55 mg/kg. Saline alone (vehicle) or dexamethasone at 1.5 mg/kg were used as controls. […] Briefly, Balb/c mice were injected s.c. with 4 ml of sterile air on day −5, baseline measurements were recorded and mice were randomized into groups. Mice entered the study upon air pouch maintenance by day −3 when 2 ml of sterile air is injected for air pouch maintenance. On day 0 mice were given a 1% carrageenan (Sigma, St. Louis, Mo.) injection suspended in saline directly into the air pouch. This induces a rapid inflammatory influx of primarily neutrophils and macrophage. The test compounds were provided in saline at mg/kg concentrations in 100 μl total volume and introduced directly into the air pouch simultaneously with the carrageenan injection, (1% carrageenan in saline). […] Cellular exudates were centrifuged, supernatants were processed for Luminex cytokine analysis, and the cell pellets were counted for total live and dead cells. […] Hemoglobin content was determined using the Drabkin's assay (Sigma, St. Louis, Mo.)."}, "[10]": {"tested_on": "serum and paw cytokines", "assay": "CIA model, serum and paw cytokines (Luminex bead assay)", "type": "in vivo, female DBA/1 mice", "description": "as §1\nFIGS. 4C-1 through 4C-4: Depict concentrations of various serum cytokines (IL-12, IL-2, IL-10 and TNFα) in arthritic paws in each treatment group.\nFrozen plasma at −80° C. was thawed on ice, vortexed, then centrifuged for 10 minutes to remove debris and aggregates. A total of 25-50 μl of serum was used for Luminex® assays following the manufacturer's instruction. Ten different mouse cytokines were measured using the mouse cytokine 10-plex bead kit (Invitrogen, Carlsbad, Calif.). […]\nA more detailed description of this method can be found described elsewhere (Lu et al, 2010, submitted for publication). […] Protein concentration was measured using a BCA protein assay (Pierce, Rockford, Ill.) and adjusted to 3 mg/ml. […]"}, "[11]": {"target": "T1, human JAK1 (Homo sapiens, UniProt P23458)", "T1 construct": "host or cells: baculovirus expression", "T1 sequence (P23458 whole entry)": "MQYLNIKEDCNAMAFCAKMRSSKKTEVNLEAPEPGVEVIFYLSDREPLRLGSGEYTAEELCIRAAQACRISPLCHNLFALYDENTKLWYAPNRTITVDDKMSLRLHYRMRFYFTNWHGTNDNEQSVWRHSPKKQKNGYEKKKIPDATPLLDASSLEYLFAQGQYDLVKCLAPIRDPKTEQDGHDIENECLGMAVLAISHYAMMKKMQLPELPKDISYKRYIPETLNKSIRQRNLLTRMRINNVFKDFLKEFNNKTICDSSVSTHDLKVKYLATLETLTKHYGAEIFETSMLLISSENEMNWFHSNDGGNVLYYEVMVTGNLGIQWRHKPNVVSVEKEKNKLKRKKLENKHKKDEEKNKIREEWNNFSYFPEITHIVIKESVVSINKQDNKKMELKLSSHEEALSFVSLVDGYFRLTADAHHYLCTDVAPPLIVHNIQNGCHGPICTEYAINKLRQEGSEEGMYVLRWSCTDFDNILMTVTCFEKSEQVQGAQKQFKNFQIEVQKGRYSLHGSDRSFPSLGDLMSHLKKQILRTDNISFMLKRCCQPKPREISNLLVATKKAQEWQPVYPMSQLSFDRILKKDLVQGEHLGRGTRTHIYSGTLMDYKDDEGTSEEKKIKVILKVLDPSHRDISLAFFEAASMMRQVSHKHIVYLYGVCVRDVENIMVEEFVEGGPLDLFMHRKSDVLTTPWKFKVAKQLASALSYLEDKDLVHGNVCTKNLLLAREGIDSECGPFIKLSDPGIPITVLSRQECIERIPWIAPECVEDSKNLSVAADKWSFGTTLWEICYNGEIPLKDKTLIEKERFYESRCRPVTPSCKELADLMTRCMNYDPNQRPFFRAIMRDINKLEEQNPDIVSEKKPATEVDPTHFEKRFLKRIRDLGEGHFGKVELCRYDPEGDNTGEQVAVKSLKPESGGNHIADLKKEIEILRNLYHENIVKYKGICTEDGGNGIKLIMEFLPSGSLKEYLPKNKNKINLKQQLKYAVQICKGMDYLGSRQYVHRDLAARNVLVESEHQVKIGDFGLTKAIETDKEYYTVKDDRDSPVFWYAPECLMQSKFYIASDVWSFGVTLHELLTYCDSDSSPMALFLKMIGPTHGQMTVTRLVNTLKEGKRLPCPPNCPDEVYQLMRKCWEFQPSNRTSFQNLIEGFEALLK", "assay": "JAK1 kinase enzyme assay, TRF detection", "type": "biochemical", "settings": "relative to JAK2", "experimental": "as §2"}}}
{"smiles": "CN1CCN(c2cccc(Nc3nc4c(-c5ccc(S(C)(=O)=O)cc5)cccn4n3)c2)CC1", "note": "[Compound A, [8-(4-Methanesulfonyl-phenyl)-[1,2,4]triazolo[1,5-a]pyridin-2-yl]-[3-(4-methyl-piperazin-1-yl)-phenyl]-amine]", "values": [{"measurement": "selectivity against TYK2", "setting": "[1]", "result": "> 800", "unit": "fold"}, {"measurement": "inhibition of JAK2, reporter assay", "setting": "[2]", "result": "inhibits JAK2 in irf-bla TF-1 cells"}, {"measurement": "total body mass", "setting": "[3]", "result": "not significantly different from that of vehicle-treated animals"}, {"measurement": "inhibition of JAK2 in vivo (pSTAT5/STAT5)", "setting": "[4]", "result": "inhibit JAK2 in vivo"}, {"measurement": "paw pSTAT3", "setting": "[5]; 55 mg/kg, p<0.01", "result": "significantly reduced"}, {"measurement": "paw pSTAT3", "setting": "[5]; 100 mg/kg, p<0.001", "result": "significantly reduced"}, {"measurement": "inhibition of JAK2, phosphorylation of STAT5", "setting": "[6]", "result": "shown to inhibit JAK2 in HEL92 cells"}, {"measurement": "drop in mean paw thickness or size compared to vehicle", "setting": "[7]", "result": 1.3, "unit": "fold"}, {"measurement": "reduction in total clinical score compared to vehicle", "setting": "[7]", "result": 2.4, "unit": "fold"}, {"measurement": "histopathology parameters (matrix erosions, subchondral osteolysis, osteoproliferation, synovial proliferation, pannus formation, degree of inflammation)", "setting": "[8]", "result": "significantly decrease several parameters"}, {"measurement": "air pouch fluid IL-6 expression", "setting": "[9]", "result": "inhibit the expression of IL-6 to below that of Dex"}, {"measurement": "angiogenesis, total hemoglobin content (Drabkin's assay)", "setting": "[9]", "result": "angiogenesis was impacted"}, {"measurement": "cellular accumulation in the air pouch (total cell count)", "setting": "[9]", "result": "significantly decreased cellular accumulation in the air pouch"}, {"measurement": "serum and paw cytokines (IL-12, IL-2, IL-10, TNFα, IL-4) and spleen IL-12", "setting": "[10]; all three doses", "result": "decrease in several serum and paw cytokines"}, {"measurement": "serum IL-12 level", "setting": "[10]; all three doses (30, 55, 100 mg/kg)", "result": "significantly decrease the level of IL-12 comparable to that observed with Dex"}, {"measurement": "selectivity versus JAK1", "setting": "[11]", "result": "> 40", "unit": "fold"}]}
